Results: patent US7906484B2, “Complex for transferring an anionic substance into a cell” (Alnylam Pharmaceuticals, Inc., priority 2006, dated 2011)
No end group written: not given here.

Experiments:
[1] = tested on: E6AP mRNA in HCT116 cells; assay: siRNA AD-8724 delivery into HCT116 cells, inhibition of E6AP mRNA expression by bDNA assay; format: cell-based, human; settings: siRNA AD-8724 250 nM, molar peptide/siRNA ratio 12.5:1
Protocol: All further experiments were carried out using HCT116 cells and inhibition of E6AP expression as readout.
HCT116-cells were obtained from the American Type Culture Collection (ATCC# CCL-247). They were cultured in McCoy's 5A medium (Biochrom AG, Berlin, Germany, Cat.# F1015) containing 10% fetal calf serum (FCS; Biochrom AG, Berlin, Germany, Cat.# S0115) and 2 mM L-Glutamin (Biochrom AG, Berlin, Germany, Cat.#: K0283) (standard growth medium). For incubation with peptide/siRNA, complexes, the medium was replaced by serum-free McCoy's 5A medium containing 2 mM L-Glutamin (serum free medium). After incubation with complexes for 4 h, McCoy's 5A medium containing 30% fetal calf serum and 2 mM L-Glutamin (triple FCS medium) was added to restore an overall 10% FCS in the medium.
The E6AP-specific siRNA denoted AD-8724 herein was used, having the following sequences: antisense strand: 5′-ucacauuccacguuaggugTsT-3′ (SEQ ID NO:51), sense strand 5′-caccuaacguggaaugugaTsT-3′; (SEQ ID NO:52; lower case letters: ribonucleotides; s: phosphorothioate backbone linkage). As a negative control, an siRNA specific for eGFP, denoted AD-5107 herein, was used, having the following sequences: antisense strand: 5′-aagucgugcugcuucauguggOMesuOMesc-3′ (SEQ ID NO:19), sense strand 5′-[…]-3′ (SEQ ID NO:18; lower case letters: ribonucleotides; subscript OMe: 2′-O-methyl-ribonucleotide; s: phosphorothioate backbone linkage). In addition to the non-specific control siRNA AD-5107, mock transfected cells treated with standard growth medium only were used as negative controls. As a positive control, AD-8724 was transfected into the cells using Lipofectamine2000™ (Invitrogen, Karlsruhe, Germany, Cat. No. 11668-019). As a further control, AD-5107 was transfected into cells using Lipofectamine2000™. All assays were performed in quadruplicates.
SiRNA/peptide complexes were prepared by mixing a solution of the siRNA in deionized water with a solution of the peptide in deionized water at the appropriate concentrations to give the desired ratio of siRNA/peptide at the desired concentration of the complex. The mixture was incubated at room temperature for 30 min and kept at 4° C. until use, and used within 24 h.
For transfections with siRNA/peptide complexes, 1.5×10^5 HCT116-cells per well in 150 μl standard growth medium were seeded into polystyrene 96 well plates and grown for 24 h at 37° C. in an atmosphere containing 5% CO2. The medium was removed by aspiration, and 90 μl serum-free medium and 10 μl of siRNA/peptide complex solution were added. Cells were incubated for 4 h at 37° C./5% CO2, 50 μl triple FCS medium were added, and the cells incubated for another 20 h under identical conditions. Subsequently, E6AP mRNA content was determined as described below.
For Lipofectamine2000™ transfections, 0.5 μl Lipofectamine2000™ were mixed with 12 μl OptiMem™ (Invitrogen, Karlsruhe, Germany, Cat. No. 11058-021) and incubated for 15 min. 1 μl of a 5 μM solution of the respective siRNA in PBS (Biochrom AG, Berlin, Germany, Cat-No: L182-05) were added to 11.5 μl OptiMeM™, mixed with the Lipofectamine2000™/OptiMem™ solution, and incubated for further 15 min. 1.5×10^5 HCT116-cells per well in 150 μl standard growth medium were grown for 24 h as described above, the growth medium removed from the cells by aspiration, and 75 μl fresh standard growth medium and the 25 μl of the siRNA/Lipofectamine2000™ mix were added to the well, to give a final siRNA concentration of 50 nM. The cells were incubated for 24 h at 37° C./5% CO2 and E6AP mRNA concentration determined.
The QuantiGene™ bDNA-kit from Panomics, Inc., Fremont, USA, was used according to manufacturer's instructions. Briefly, cells were lysed by adding 50 μl of Lysis Mixture (from QuantiGene bDNA-kit) to each well and incubation at 53° C. for 1 h. […]

eGFP-mRNA = assay: Influence of peptide/siRNA ratio on siRNA activity in HCT116 cells; format: cell-based; settings: 250 nM siRNA
Protocol: The optimal ratio of (peptide):(anionic substance) for complex formation, was determined in section 3 above to lie in the range of 8:1 to 13:1 by titrating a fixed concentration of the anionic substance with increasing amounts of the peptide, and monitoring complex formation by electrophoresis of the mixture. To further validate and possibly narrow down the optimum ratio of peptide/anionic substance, an assay with a functional readout was performed. HCT116 cells were incubated with siRNA complexes as described above at concentrations such that the amount of siRNA in the incubation mixture corresponds to a 250 nM concentration of the siRNA, and the peptide/siRNA ratio was 8:1, 10:1, 12:1, or 14:1.

cell viability = assay: CytoTox ONE cell viability assay; format: cell-based; settings: 2.5 μM peptide
Protocol: Delivery of siRNAs was tested in 7 different cell lines we obtained from the American Type Culture Collection, ATCC, via LCG Promochem GmbH, Wesel, Germany (PC12, ATTC# CRL-1721; HCT116, ATCC# CCL-247; C33A, ATCC# HTB-31; H441, ATCC# HTB-174; NMuLi, ATCC# CRL-1638; HepG2, ATCC# HB-8065; HeLa S3, ATCC# CCL2.2) and in the cell line KB-BCL2-GFP, as described in co-pending U.S. Ser. No. 10/941,663. Target mRNA quantification was performed using the QuantiGene™ bDNA-kit from Panomics, Inc., Fremont, USA, according to the manufacturers instructions, and essentially as described below for H441 cells. Genes constitutively expressed in the various cell lines were chosen as targets and results normalized to GAPDH expression. siRNA concentration was 250 nM, the concentration of the peptide was chosen as given by the molar ratio peptide/siRNA shown in Table 1. Cytotoxicity of peptides was evaluated employing the CytoTox-ONE™ assay (Promega GmbH, Mannheim, Germany).
Potential cytotoxic effects as mediator of inhibition were ruled out by determining cell viability in the presence of 2.5 μM of ppTG20, AP-0, AP-1, AP-27, AP-30, AP32 and AP-34 using the CytoTox ONE™ assay (Promega GmbH, Mannheim, Germany).

Row | Sequence | remaining E6AP mRNA (in % of mock) [1] [%] | also measured
1 | GAFRAAARLLRSLWRALLRA [AP-24] | 91 ± 16 | –
2 | GAFRAAARLLRSLWRLLLRA [AP-23] | 82 ± 6 | –
3 | GAFRAALRLLRSLWRLLLRA [AP-21] | 53 ± 32 | –
4 | GAYRAALRLLRSLWRLLSRA [AP-26] | 78 ± 6 | –
5 | GLFRALARALRSLWRALARA [AP-25] | 83 ± 5 | –
6 | GLFRALLRLLRRLWRLLLRA [AP-3] | 43 ± 7 | Remaining eGFP-mRNA in % of mock-transfected controls (eGFP-mRNA; peptide/siRNA ratio 8:1): 39 ± 10%; Remaining eGFP-mRNA in % of mock-transfected controls (eGFP-mRNA; peptide/siRNA ratio 10:1): 32 ± 4%; Remaining eGFP-mRNA in % of mock-transfected controls (eGFP-mRNA; peptide/siRNA ratio 12:1): 40 ± 5%; Remaining eGFP-mRNA in % of mock-transfected controls (eGFP-mRNA; peptide/siRNA ratio 14:1): 40 ± 8%
7 | GLFRALLRLLRSLWRALARA [AP-22] | 32 ± 14 | –
8 | GLFRALLRLLRSLWRLLLRA [ppTG20, reference compound] | – | cell viability (cell viability): None of these peptides led to a significant alteration of cell viability
9 | GLFRALLRLLRSLWRLLLRAHHHHH [AP-0] | – | cell viability (cell viability): None of these peptides led to a significant alteration of cell viability
10 | GLFRALLRLLRSLWRLLRRA [AP-2] | 58 ± 7 | Remaining eGFP-mRNA in % of mock-transfected controls (eGFP-mRNA; peptide/siRNA ratio 8:1): 54 ± 6%; Remaining eGFP-mRNA in % of mock-transfected controls (eGFP-mRNA; peptide/siRNA ratio 10:1): 35 ± 15%; Remaining eGFP-mRNA in % of mock-transfected controls (eGFP-mRNA; peptide/siRNA ratio 12:1): 32 ± 11%; Remaining eGFP-mRNA in % of mock-transfected controls (eGFP-mRNA; peptide/siRNA ratio 14:1): 36 ± 7%
11 | GLFRALLRLLRSLWRLLSRA [AP-16] | 43 ± 13 | –
12 | GLFRALLRLLRSLWRSLLRA [AP-17] | 37 ± 9 | –
13 | GLFRALLRLLRSLWRSLSRA [AP-18] | 49 ± 3 | –
14 | GLFRALRRLLRSLWRLLRRA [AP-5] | 108 ± 47 | –
15 | GLYRALLRLLRSLWRLLLRA [AP-19] | 27 ± 9 | –
16 | GLYRALLRLLRSLWRLLSRA [AP-20] | 45 ± 6 | –
